Measurements as given in patent US20100278847A1, “MUTUALLY SUPPRESSIVE GENE/INHIBITOR COMBINATIONS FOR NON-ANTIBIOTIC SELECTION OF RECOMBINANT STRAINS” (priority 2007, published 2010).

Experiments:
[1] = cited from earlier work
DH5α = assay: Growth rate from exponential phase (OD550 over time); format: cell-based, E. coli; settings: media containing 0-2 μM triclosan
Method: Growth rate was calculated from the exponential phase of growth, which was monitored as increased OD550 over time by the VERSAmax spectrophotometer (Molecular Devices). An overnight culture (16 h), standardized by OD550 to yield approximately 7×10^5 cfu/ml, was grown in 200 μl volumes per well in a 96-well plate for 24 h with agitation for 5 s every 5 min, when OD550 readings were taken. Triclosan dissolved in DMSO was added to give 0-2 μM Triclosan and 1% DMSO final concentrations.

DH5α/pFab = assay: Cell viability, SYTOX green staining flow cytometry; format: cell-based, E. coli; settings: 0.5-2 μM triclosan, overnight culture
Method: DH5α/pFab were grown overnight in the absence or presence of 0.5-2 μM triclosan and subjected to SYTOX green staining flow cytometry, as previously described (Roth et al. 1997). DH5α/pUC19 was included as a control for green fluorescence of live and heat-treated dead cells. Samples were excited with a 488 nm air-cooled argon ion laser in the CyFlow SL flow cytometer (Partec GmbH). Threshold settings were enabled on forward scatter to exclude cell debris. The forward and side scatter dot plot was used to identify and gate cell populations. Fluorescence was measured at 520 nm Viable and dead cell populations were counted using the Partec FloMax software version 2.4e.

Oc1cc(Cl)ccc1Oc1ccc(Cl)cc1Cl [triclosan]
Solubility in water [1]: poor solubility in water
Triclosan concentration at which growth rates of pUCFA and pFab clones were highest (DH5α): 1 μM
Proportion of green fluorescent (dead) cells in DH5α/pFab culture (DH5α/pFab): decreased with increasing triclosan concentrations
